Test results from patent EP0052910A1, “Derivative of N-acetilcysteine having therapeutical activity, process for its preparation and related pharmaceutical compositions” (Real S.a.s. di Alberto Reiner & C., priority 1980, dated 1982).

Key:
[1] = tested on: male rats, of the Sprague-Dawley strain; assay: Anti-inflammatory activity in the egg white test; assay type: in vivo; settings: orally, 0.1 ml of egg white in the rear paw, measured 3 and 4 hours later
Method: For each compound 16 male rats, of the Sprague-Dawley strain and weighing 300 g, were used. The animals were divided in four groups each comprising four rats. The first group served as a control, whereas the other three gropus were orally administered, with a 30 minute interval, with two doses of 50,75 and 100 mg/kg of the test compound. The last administration was immediately followed by the inoculation of 0.1 ml of egg white in the rear paw of all the animals, including the controls. The measurements of the diameters of the articulations were effected 3 and 4 hours later.

[2] = tested on: rats of male sex, of the Sprague-Dawley strain; assay: Anti-inflammatory activity in the kaolin test; assay type: in vivo; settings: 10% suspension of kaolin injected, diameter of the tibio-tarsal articulation
Method: a) Anti-inflammatory activity in the kaolin test. For each compound 16 rats of male sex, of the Sprague-Dawley strain and of 200-250 g of body weight, were used. The rats were divided into four groups each comprising four rats. All.-the animals were injected with a 10% suspension of kaolin. The first group was used as the control, whereas the other three groups were administered with doses respectively of 50,75 and 100 mg/kg. The measurements of the diamzrers of the articulation were effected one hour after the kaolin injection and then every 24 hours.
The inoculation of kaolin caused an increase of the tibio-tarsal articulation which has been partially limited by the treatment with the test compound.

“p-isobutylphenylpropionoylthio-N-acetylcysteine” was tested, and the Anti-inflammatory activity % ([1]; two doses of 75 mg/kg with a 30 minute interval) was 12%, the Anti-inflammatory activity % ([1]; two doses of 100 mg/kg with a 30 minute interval) was 20% and the Anti-inflammatory activity % ([2]; dose 75 mg/kg) was 12%. The Anti-inflammatory activity % ([2]; dose 100 mg/kg) was 26%.
